Where a SMILES comes first, the peptide text is derived from it. Bridges are numbered along the chain shown (N, C = ends).

What is called IC50 is the concentration that inhibits the measured activity by half. Low readings indicate higher potency, high ones lower potency.

Experiment [1] addresses α7 nAChR (Rattus norvegicus, UniProt Q05941). As to the kind of experiment: cell-based.
Experiment [2] addresses α7 nAChR (Homo sapiens, UniProt P36544). The experiment in a line: cell-based. The experiment is classed as binding.

Chain of α7 nAChR (Rattus norvegicus, UniProt Q05941) (Q05941 23-502 limits assumed): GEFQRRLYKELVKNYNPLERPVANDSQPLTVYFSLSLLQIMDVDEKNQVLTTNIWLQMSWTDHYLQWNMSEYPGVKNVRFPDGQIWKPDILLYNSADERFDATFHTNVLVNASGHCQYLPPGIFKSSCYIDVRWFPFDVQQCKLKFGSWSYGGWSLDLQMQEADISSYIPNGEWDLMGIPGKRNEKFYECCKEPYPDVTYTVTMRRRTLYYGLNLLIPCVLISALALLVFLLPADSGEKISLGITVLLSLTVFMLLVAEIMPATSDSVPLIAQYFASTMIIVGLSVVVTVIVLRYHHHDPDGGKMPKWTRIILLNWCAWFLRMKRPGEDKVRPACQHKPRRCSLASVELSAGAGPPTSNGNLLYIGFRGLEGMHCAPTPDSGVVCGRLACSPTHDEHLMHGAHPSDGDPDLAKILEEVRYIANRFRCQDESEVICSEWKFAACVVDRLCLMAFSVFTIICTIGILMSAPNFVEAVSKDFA
Chain of α7 nAChR (Homo sapiens, UniProt P36544) (P36544 23-502 limits assumed): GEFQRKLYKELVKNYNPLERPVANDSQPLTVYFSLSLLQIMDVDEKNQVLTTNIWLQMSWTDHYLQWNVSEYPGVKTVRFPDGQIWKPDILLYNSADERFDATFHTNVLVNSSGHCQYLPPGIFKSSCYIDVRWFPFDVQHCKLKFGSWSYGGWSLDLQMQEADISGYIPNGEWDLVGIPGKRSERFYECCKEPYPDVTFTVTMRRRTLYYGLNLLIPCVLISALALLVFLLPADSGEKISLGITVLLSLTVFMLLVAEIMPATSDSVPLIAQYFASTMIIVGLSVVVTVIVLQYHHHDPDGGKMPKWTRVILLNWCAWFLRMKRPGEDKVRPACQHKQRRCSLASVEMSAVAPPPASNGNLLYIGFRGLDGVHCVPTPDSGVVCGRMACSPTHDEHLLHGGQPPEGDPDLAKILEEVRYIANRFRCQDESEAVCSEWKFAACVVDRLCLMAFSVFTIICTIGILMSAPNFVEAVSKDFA

For `CC(C)C[C@@H]1NC(=O)[C@H](CCCNC(=N)N)NC(=O)[C@@H]2CSSC[C@H](NC(=O)CN)C(=O)N[C@@H](CSSC[C@@H](C(N)=O)NC(=O)[C@H](Cc3ccc(O)cc3)NC(=O)[C@H](CCCNC(=N)N)NC(=O)[C@@H]3CCCN3C(=O)[C@H](CC(N)=O)NC(=O)[C@H](CC(N)=O)NC1=O)C(=O)N[C@@H](CO)C(=O)N[C@@H](CCCNC(=N)N)C(=O)N1CCC[C@H]1C(=O)N1CCC[C@H]1C(=O)N2` [PnIA[R5, R9, L10, R14]] (H-GCCSRPPCRLNNPRYC-NH2; disulfide 2-8, 3-16), half-maximal inhibition at α7 nAChR [1] (IC50) required 17 ± 2 nM.
`CC(C)C[C@@H]1NC(=O)[C@H](CCCNC(=N)N)NC(=O)[C@@H]2CSSC[C@H](NC(=O)CN)C(=O)N[C@@H](CSSC[C@@H](C(N)=O)NC(=O)[C@H](Cc3ccc(O)cc3)NC(=O)[C@H](CC(=O)O)NC(=O)[C@@H]3CCCN3C(=O)[C@H](CC(N)=O)NC(=O)[C@H](CC(N)=O)NC1=O)C(=O)N[C@@H](CO)C(=O)N[C@@H](CC(C)C)C(=O)N1CCC[C@H]1C(=O)N1CCC[C@H]1C(=O)N2` [PnIA[R9, L10]] (H-GCCSLPPCRLNNPDYC-NH2; disulfide 2-8, 3-16) showed an IC50 against α7 nAChR [1] of 27 ± 11 nM. Also, on α7 nAChR [2], the “displacement of [125I]-PnIA[R9, L10] by non-radioactive peptide” value turned out to be 100%.
In the case of `CC(C)C[C@@H]1NC(=O)[C@H](CO)NC(=O)[C@@H]2CSSC[C@@H](C(N)=O)NC(=O)[C@H](Cc3ccc(O)cc3)NC(=O)[C@H](CC(=O)O)NC(=O)[C@@H]3CCCN3C(=O)[C@H](CC(N)=O)NC(=O)[C@H](CC(N)=O)NC(=O)[C@H](C)NC(=O)[C@H](CCCNC(=N)N)NC(=O)[C@H](CSSC[C@H](NC(=O)CN)C(=O)N2)NC(=O)[C@@H]2CCCN2C(=O)[C@@H]2CCCN2C1=O` [PnIA[R9]] (H-GCCSLPPCRANNPDYC-NH2; disulfide 2-8, 3-16), the IC50 at α7 nAChR [1] was determined as 27 ± 10 nM; against α7 nAChR [2] it was 1490 nM.
